# Laboratory results as given in patent US8389739B1, “Modulators of retinoid-related orphan receptor gamma” (Orphagen Pharmaceuticals, priority 2006, dated 2013).
# pEC50: −log10 of the molar value. Values joined by “and” are separate entries in the source; they are usually repeats but may differ in a detail not shown here. Identical values can stand only once. “Also recorded” adds a separate entry of the source.
# How the values were obtained:
# EAE [1] = test: EAE model, SJL/J mice immunized with PLP139-151, osmotic pump; assay type: in vivo
# TH-17 cells = test: TH-17 cell frequency in lymph nodes of PLP-immunized SJL/J mice; assay type: in vivo; conditions: 100 mg/kg OR-1050 in HRC-6 daily, day 9 after PLP immunization; fraction of total CD4+ cells
# Procedure: FIGS. 11D-F SJL/J mice were immunized with 75 μg PLP139-151 (Day 0). Osmotic pumps delivering vehicle or OR-1050 ([…]) were inserted at Days 3 and 4. Day of onset (FIG. 11E) compares the first day when EAE severity is 1 or higher. The ratio of Th-17 cells (CD4^+CD8^−IL17^+) to […] was analyzed in a separate study (F FIG. 11F) at day 9 after immunization with PLP where mice had been dosed daily with OR-1050 (100 mg/kg in HRC-6) since […]. Statistics (panels A, B, D, F) were performed by Student's t-test. *, P<0.05; #, P<0.01 (mean±sem, n=7-10) or by the Mann-Whitney rank order test (FIGS. 11C, E, median values shown).
# Since OR-1050 inhibits TH-17 cells in ex vivo culture, we also investigated whether TH-17 cell frequency was affected in OR-1050-treated animals. SJL/J female mice (n=9/group) were treated with 100 mg/kg OR-1050 in HRC-6 beginning two days before immunization with PLP (as described above) and continuing until 8 days after immunization. Animals were sacrificed on day 9, and TH-17 cells analyzed from pooled axillary, brachial, and inguinal lymph nodes from each animal. We found a 35% reduction in TH-17 frequency in lymph nodes of SJL/J mice (FIG. 11F) as a fraction of the total CD4^+ cell population. The change in TH-17 frequency with OR-1050 treatment was statistically significant.
# [2] = tested on: splenic TH-17 and TH1 cells; test: Splenic TH-17 and TH1 cells in MOG-immunized C57BL/6 mice; assay type: in vivo; conditions: 100 mg/kg oral gavage for 9 days
# Procedure: C57BL/6 female mice were immunized with 150 μg […] on study day 0. Mice were treated with either OR-1050 at 100 mg/kg or with vehicle (HRC-6) by oral gavage for 9 days starting day O, Splenocytes were collected at Day 9 and stained for TH-17 (CD4^+CD8^−IL17^+) and TH1 (CD4^+CD8^−IFNγ^+) cells. Statistics were performed by Student's t-test.
# [3] = Pharmacokinetics of OR-1050 in CD-1 mice, oral gavage; assay type: in vivo
# Procedure: FIG. 12B. Bioavailability of OR-1050. OR-1050 was dosed in CD-1 mice at […] in HRC-6, a proprietary formulation that is commercially available from Pharmatek (San Diego, Calif.). Blood samples from triplicate animals were tested for levels of OR-1050 at multiple time points.
# Pharmacokinetics of OR-1050 in CD-1 mice was analyzed at independent bioanalytical laboratory. Male CD-1 mice were treated via oral gavage with OR-1050 at 5 mg/kg in HRC-6. Blood was collected via retro-orbital puncture in tubes containing sodium heparin anticoagulant at 0, 5, 15, and 30 min, and at 1, 2, 4, 6, 8 and 24 hr after oral administration. The concentration of OR-1050 in plasma was determined using an HPLC/MS/MS method.
# CIA = test: Collagen-induced arthritis (CIA) in DBA/1 mice; assay type: in vivo; conditions: 100 mg/kg/day OR-1050 p.o. in HRC-6; AUC day 24 to 48, p<0.09
# [4] = tested on: IL-17 release in lymph node cultures; test: Lymph node cell cultures from MOG35-55 immunized C57BL/6 mice, IL-17 ELISA; assay type: cell-based; conditions: Mus musculus, 72 h; MOG and IL-23, 3 days, dose-response (FIG. 13F); read-out: EC50 for inhibition of IL-17 production
# Procedure: FIGS. 13A-F. IL-17 levels in lymph node cells from mice immunized with myelin-derived peptides respond to cognate peptide antigens, IL-23 and RORγ ligands. (FIG. 13A) SJL/J mice were immunized by complete Freund's adjuvant (CFA) only or by Proteolipid Protein residues 139-151 (PLP139-151) emulsified in CFA. Lymph nodes were cultured for 3 days in with or without 40 μg/ml PLP in the presence or absence of OR-885. Culture media were analyzed by ELISA for IL-17. (FIGS. 13B-C) Lymph node cells from PLP-immunized SJL/J mice were cultured as before with the addition of 10 ng/ml IL-23 and 3 μM compounds. At the end of 1 day or 3 days in culture, Th-17 (CD4^+CD8^−IL17^+) cell frequency was measured by FACS (FIG. 13B) and compared to IL-17 levels in culture media (FIG. 13C). (FIGS. 13D-F) Lymph node cells from MOG35-55 immunized C57BL/6 mice were cultured for 3 days with 30 μg/ml MOG and/or 10 ng/ml IL-23. RORγ ligands were not added (FIG. 13D), or added at the beginning of the culture at a single concentration (FIG. 13E, 1 μM) or in multiple doses (FIG. 13F). […]
# Overall, cultured lymph node cells that are stimulated with IL-23 and peptide antigens provide a model system to examine IL-17 production ex vivo (FIG. 13D). We analyzed a variety of RORγ ligands for their ability to regulate IL-17 (FIG. 13E). […] This potency is consistent with that measured in the CHO cell transcription assay.
# EAE [5] = conditions: mouse, in vivo; cited from earlier work
# liver triglyceridemia = conditions: mice lacking the LXRα and LXRβ receptors; cited from earlier work
structure (smiles),measurement,setting,value
"CCN(c1ccc(C(O)(C(F)(F)F)C(F)(F)F)cc1)S(=O)(=O)c1ccc([N+](=O)[O-])cc1 [OR-1050, N-Ethyl-4-nitro-N-[4-(2,2,2-trifluoro-1-hydroxy-1-trifluoromethyl-ethyl)-phenyl]-benzenesulfonamide]","paralytic severity, in words",EAE [1]; FIG. 11D,reduced paralytic severity
same,"day of onset, in words",EAE [1]; FIG. 11E,significantly delayed
same,area under the severity curve (mean±sem),"EAE [1]; estimated 30 mg/kg daily, vehicle 14.5±1.6, p<0.01",5.3±2.7
same,reduction in TH-17 frequency in lymph nodes,TH-17 cells,35%
same,change in TH1 cells,[2],no change in TH1 cells
same,inhibition of splenic TH-17 cells,"[2]; HRC-6, p<0.05, n=8-10",29%
same,blood levels suggested for a higher dosage,[3]; extrapolated to 50 mg/kg,1 μg/ml and ~2 μM
same,"oral bioavailability, in words","[3]; mouse, in vivo, po",modest bioavailability; also recorded: orally-bioavailable; also recorded: orally bioavailable
same,disease course of CIA (hind limb clinical scores),CIA,partly suppressed
"C[C@@H]1CC[C@@]2(OC1)O[C@H]1C[C@H]3[C@@H]4CC[C@H]5C[C@@H](O)CC[C@]5(C)[C@H]4C[C@@H](O)[C@]3(C)[C@H]1[C@@H]2C [OR-885, 5α,20α, 22α, 25D-SPIROSTAN-3β, 12β-DIOL]",pEC50,[4],~6.70
"O=S(=O)(c1ccccc1)N(CC(F)(F)F)c1ccc(C(O)(C(F)(F)F)C(F)(F)F)cc1 [Compound T0901317, N-(2,2,2-Trifluoro-ethyl)-N-[4-(2,2,2-trifluoro-1-hydroxy-1-trifluoromethyl-ethyl)-phenyl]-benzenesulfonamide, reference compound]",development of murine EAE,EAE [5],inhibit the development of murine EAE
same,liver triglyceridemia,liver triglyceridemia,no effect on liver triglyceridemia
